Source: patent US9034895B2, “Composition and methods for treating glioblastoma” (University of Washington Through its Center for …, priority 2010, dated 2015)

What was measured:
T98g cells = assay: Cell viability assay (WST-1), toxic potency and efficacy at T98g cells; format: cell-based; conditions: Homo sapiens, 72 h; for Emax: read-out: Toxic potency at T98g cells (percent efficacy); for EC50: read-out: Toxic potency at T98g cells potency μM; for cytotoxicity at 10 µM: read-out: Activity at killing T98g cells percent efficacy at 10 μM
Experimental: (§1) Cells were plated media supplemented with 10% serum in 96-well plates (10^4 cells per wellI; 0.1 ml per well). Once they reached ˜70% confluence, they were rinsed with PBS and kept for an additional 24 hrs in media supplemented with 1% serum, at which time drugs or vehicle (DMSO, 0.1%, prepared in 10 μl serum-free media) were directly added to each well. After 3 days, cell viability was assessed using the Cell Proliferation Reagent WST-1 (Roche, Indianapolis, Ind.). Briefly, WST-1 reagent (10 μl) was added to each well for 3 hrs at 37° C. with 5% CO2 and WST-1 products were read at 450 nm using Packard SpectraCount™.
Because the strongest toxic effect of WIN55212-2 was measured in T98g cells, these cells are used as readout to study the structure activity relationship (SAR) of AAI compounds at inducing cell death through AAI receptors.

[1] = test system: T98g, MDA231 and sknmc cells; assay: Cell viability assay, killing of CB1/CB2-lacking cell lines; format: cell-based, human; conditions: for potencies and efficacies at killing T98g, MDA231 and sknmc cells: in words
Experimental: as §1
The expression level of CB1 and CB2 mRNA is determined by qPCR in eight human cell lines and found three, T98g, MDA231 and sknmc cells, that lack CB1 and CB2 mRNA (Table 1).
Based on this evidence, it was determined if WIN55212-2 differentially kills T98g, MDA231 and sknmc cells, which provides an index of AAI receptor functionality in these cells. Also tested is Δ^9-THC (classic cannabinoid) and CP55940 (non-classical cannabinoid).

CB1 = target: T1, CB1 (Mus musculus, UniProt P47746); assay: Radioligand competition binding, [3H]-CP55940, CB1-expressing HEK293 membranes; conditions: FIG. 2 (CB1 not shown)
T1 construct: plasmids containing full coding region of mouse CB1 and CB2; expressed in transfected cells
T1 sequence (P47746 whole entry): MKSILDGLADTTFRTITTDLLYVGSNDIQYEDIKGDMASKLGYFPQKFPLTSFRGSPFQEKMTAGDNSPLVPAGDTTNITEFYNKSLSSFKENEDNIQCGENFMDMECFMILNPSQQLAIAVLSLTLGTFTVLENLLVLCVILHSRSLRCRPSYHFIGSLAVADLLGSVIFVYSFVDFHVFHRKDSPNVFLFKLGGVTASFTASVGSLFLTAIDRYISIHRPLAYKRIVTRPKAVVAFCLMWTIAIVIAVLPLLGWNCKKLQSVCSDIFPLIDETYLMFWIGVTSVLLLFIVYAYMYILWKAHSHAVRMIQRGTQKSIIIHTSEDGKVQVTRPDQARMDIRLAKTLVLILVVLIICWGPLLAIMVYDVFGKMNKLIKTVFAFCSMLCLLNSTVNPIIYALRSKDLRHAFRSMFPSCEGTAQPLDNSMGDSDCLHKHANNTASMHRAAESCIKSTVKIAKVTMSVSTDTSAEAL
Experimental: (§2) Stable CB1 and CB2 expressing HEK293 cell lines were generated using plasmids containing full coding region of mouse CB1 and CB2.
(§3) Fragments were amplified from total RNA of cell lines by reverse transcriptase-polymerase chain reaction (RT-PCR). Sequence was confirmed and the fragment was cloned into the EcoRI site of the pIRES2-eGFP-express vector. Cells were grown to approximately 80% confluence in 10 cm cell culture dishes, transfected with the cDNA pIRES-eGFP-vector containing the murine CB1 or CB2 receptor using LipofectAMINE™ 2000 reagent in the serum-free media Opti-MEM 1 according to the manufacturer's description. Cells were subject to FACS sorting 48 h after transfection and single cell sorted based on dsRed expression into 96-well plates. Of the dsRed expressing positive clones, 3 were validated for CB1 and CB2 protein expression by radioligand binding analysis (methods discussed below).
(§4) Cells were grown to 90% confluence, rinsed twice with 1×PBS and stored at −80° C. until further use. To prepare crude cellular membrane fractions, dishes were removed from −80° C. and thawed at room temperature for 5 min. Once thawed, cells were lysed with ice-cold homogenization buffer (50 mM Tris, 1 mM EDTA, 3 mM MgCl2) and gently scraped from the dish. Total cell lysates from 3-5 dishes were collected on ice in 3 ml of ice-cold homogenization buffer. Cells were homogenized at 6,500 rpm (PRO Scientific, Oxford, Conn.) twice for 10 sec and centrifuged at 11,500 rpm for 20 min at 4° C. Supernatants were discarded and cell pellets were resuspended in homogenization buffer and triturated 10 times in ice-cold homogenization buffer. Crude cellular membrane homogenates were stored at −80° C. until further use. On the day of experiments, frozen homogenates were thawed at room temperature, gently triturated 10 times and subsequently dounce homogenized in a 7 ml glass tissue grinder (Wheaton Science Products, Millville, N.J.) by 5 strokes while on ice. […]

CB2 = target: T2, CB2 (Mus musculus, UniProt P47936); assay: Radioligand competition binding, [3H]-CP55940, CB2-expressing HEK293 membranes; conditions: FIG. 2
T2 construct: plasmids containing full coding region of mouse CB1 and CB2; expressed in transfected cells
T2 sequence (P47936 whole entry): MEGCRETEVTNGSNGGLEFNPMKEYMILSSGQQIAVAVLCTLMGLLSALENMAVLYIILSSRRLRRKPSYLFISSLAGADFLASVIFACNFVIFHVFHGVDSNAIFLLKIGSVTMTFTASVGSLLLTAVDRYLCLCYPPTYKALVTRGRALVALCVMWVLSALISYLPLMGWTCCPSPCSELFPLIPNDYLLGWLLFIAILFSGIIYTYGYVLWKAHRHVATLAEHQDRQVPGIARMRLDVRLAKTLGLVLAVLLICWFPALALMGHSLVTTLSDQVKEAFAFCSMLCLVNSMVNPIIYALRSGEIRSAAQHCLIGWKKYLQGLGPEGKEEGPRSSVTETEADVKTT
Experimental: as §2, §3, §4

[2] = test system: protein expressed by NG108-15 cells; conditions: cited from earlier work
[3] = test system: homogenates prepared from CB1−/− mice cerebellum; conditions: insensitive to SR144528; cited from earlier work
[4] = test system: hippocampal slices prepared from CB1−/− mice; conditions: blocked by capsazepine; cited from earlier work

SMILES | Emax (T98g cells) | EC50 (T98g cells) | cytotoxicity at 10 µM (T98g cells) | further results
Cc1ccc(C(=O)c2c(C)n(CCN3CCOCC3)c3ccccc23)c2ccccc12 [TK-18] | 48% | 3 µM | – | –
CC1=C(CCN2C(=O)COc3ccccc32)c2ccccc2C1C (centres unmarked) [TK4] | – | – | 10% | –
CCCCCc1cc(O)c2c(c1)OC(C)(C)[C@@H]1CCC(C)=C[C@@H]21 [THC] | – | – | – | potencies and efficacies at killing T98g, MDA231 and sknmc cells [1]: inconsistent potencies and efficacies
O=C1CCCc2c1c1ccccc1n2Cc1ccccc1 [TK7] | – | – | 19% | –
O=C(c1cccc2ccccc12)c1cn(CCN2CCOCC2)c2ccccc12 [JWH-200] | 48% | 21 µM | – | –
Cc1c(C(=O)c2cccc3ccccc23)c2cccc3c2n1[C@@H](CN1CCOCC1)CO3 [WIN55212-2] | 87% | 1.5 µM | – | EC50 ([1]; Homo sapiens, range over the three cell lines (FIG. 1), read-out: potency at killing T98g, MDA231 and sknmc cells): 1.5 to 2.9 µM; gradual toxic efficacy across cell lines ([1]; rank order of cell lines): T98g>MDA>sknmc; competition for [3H]-CP55940 binding at CB1 (CB1): competes; competition for [3H]-CP55940 binding at CB2 (CB2): competes; binding affinity to a protein expressed by NG108-15 cells [2]: nanomolar affinity; [35S]-GTPγS binding [3]: increase; excitatory transmission [4]: inhibit
Cc1c(C(=O)c2ccccc2)c2ccccc2n1CC(=O)N1CCOCC1 [TK16] | – | – | 3% | –
CCn1c(C)c(C(=O)c2cccc3ccccc23)c2ccccc21 [JWH-043] | 84% | 6.9 µM | – | –
Cc1c(C(=O)c2cccc3ccccc23)c2ccccc2n1C [JWH-042] | 71% | 3.1 µM | – | –
CC(=O)c1c(C)n(CCCOc2ccccc2)c2ccccc12 [TK-14] | 92% | 40 µM | – | –
Cc1ccc(C(=O)c2c3n(c4ccccc24)CCCC3)c2ccccc12 [CBX-005, (4-methylnaphthalen-1-yl)(6,7,8,9-tetrahydropyrido[1,2-a]indol-10-yl)methanone] | 64% | 1.2 µM | – | –
COc1ccc(C(=O)c2c(C)n(CCN3CCOCC3)c3ccccc23)cc1 [Pravadoline] | 88% | 22 µM | – | –
Cc1ccc(C(=O)c2c(C)n(CCN3CCOCC3)c3cc(Cl)ccc23)c2ccccc12 [CBX-004, (6-chloro-2-methyl-1-(2-morpholinoethyl)-1H-indol-3-yl)(4-methylnaphthalen-1-yl)methanone] | 68% | 2 µM | – | –
Cc1c(C(=O)C(F)(F)F)c2ccccc2n1CC(=O)NCc1ccccc1 [TK6] | – | – | 8% | –
Cc1ccc(C(=O)c2c(C)n(CCN3CCOCC3)c3ncccc23)c2ccccc12 [CBX-003, (2-methyl-1-(2-morpholino ethyl)-1H-pyrrolo[2,3-b]pyridin-3-yl)(4-methylnaphthalen-1-yl)methanone] | 71% | 5 µM | – | –
CCCn1c(C)c(C(=O)c2cccc3ccccc23)c2ccccc21 [JWH-015, (2-methyl-1-propyl-1H-indol-3-yl)(naphthalen-1-yl)methanone] | 58% | 1.3 µM | – | –
Cc1ccc(C(=O)c2c(C)n(C)c3ccccc23)c2ccccc12 [JWH-450, (1,2-dimethyl-1H-indol-3-yl)(4-methylnaphthalen-1-yl)methanone] | 66% | 2 µM | – | –

SMILES | Emax (T98g cells) | EC50 (T98g cells) | cytotoxicity at 10 µM (T98g cells) | further results
Cc1c(C(=O)Cn2cnc3ccccc3c2=O)c2ccccc2n1C [TK5] | – | – | 3% | –
Cc1ccc(C(=O)c2c(C)n(CCN3CCOCC3)c3ccc(Cl)cc23)c2ccccc12 [CBX-002, (5-chloro-2-methyl-1-(2-morpholino ethyl)-1H-indol-3-yl)(4-methylnaphthalen-1-yl)methanone] | 45% | 30 µM | – | –
Cc1ccc(C(=O)c2c(C)n(CCN3CCOCC3)c3cc(Cl)cc(Cl)c23)c2ccccc12 [CBX-007, (4,6-dichloro-2-methyl-1-(2-morpholino ethyl)-1H-indol-3-yl)(4-methylnaphthalen-1-yl)methanone] | 56% | 0.6 µM | – | –
COc1ccc2c(c1)c(C(O)N1CCCC(c3nnc4ccccn34)C1)c(C)n2C (centres unmarked) [TK12] | – | – | 16% | –
Cc1nccn1CC1CCc2c(c3ccccc3n2C)C1=O (centres unmarked) [TK3] | – | – | 11% | –
COCCn1cc(C(=O)N2CCCC(CN(C)C)C2)c2ccccc21 (centres unmarked) [TK9] | – | – | 0% | –
CCCCCn1cc(C(=O)c2cccc3ccccc23)cc1-c1cc(C)cc(O)c1 [JWH-370] | – | – | 11% | –
Cn1cc(C(=O)N2CCCc3ccccc32)c2ccccc21 [TK10] | – | – | 0% | –
COc1ccc2c(c1)c(C(=O)N1CCCC(c3nnc4ccccn34)C1)c(C)n2C (centres unmarked) [TK11] | – | – | 10% | –
CC(=O)c1c(C)n(CCOc2cccc3ccccc23)c2ccccc12 [TK-15] | 62% | 45 µM | – | –
CCCn1cc(C(=O)c2ccc(C)c3ccccc23)c2ccccc21 [JWH-120] | – | – | 0% | –
COCCn1c(C)c(C(=O)N2CCC3(CC2)NC(=O)N(C)C3=O)c2ccccc21 [TK-8] | 55% | 886 µM | – | –
CCCCCCC(C)(C)c1ccc([C@@H]2C[C@H](O)CC[C@H]2CCCO)c(O)c1 [CP55940] | – | – | – | potencies and efficacies at killing T98g, MDA231 and sknmc cells [1]: inconsistent potencies and efficacies; competition for WIN-2 binding in NG108-15 cells [2]: did not compete
CC(=O)c1c(C)n(CCOc2ccccc2)c2ccccc12 [TK-2] | 81% | 3.1 µM | – | –
Cc1c(CNN2CCOCC2)nn(C)c1C [TK-1] | – | – | 6% | –
CCCn1c(C)c(C(=O)c2ccc(C)c3ccccc23)c2ccccc21 [JWH-148] | 48% | 2 µM | – | –
